Measurements published in PubChem BioAssay (NCI).
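How tested: cells in 96-well plates exposed to compound for 48 hours at five concentrations. Abbreviation: GI50, concentration required for 50% inhibition of growth. TGI: concentration producing complete growth inhibition.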

Tests used:
Assay in all cases: NCI tumour cell line growth inhibition, 48 h
SNB-75 CNS = system: SNB-75 CNS
MOLT-4 leukemia = system: MOLT-4 leukemia
OVCAR-3 ovarian = system: OVCAR-3 ovarian
EKVX NSCLC = system: EKVX NSCLC
HCT-15 colon = system: HCT-15 colon
OVCAR-8 ovarian = system: OVCAR-8 ovarian
SW-620 colon = system: SW-620 colon
PC-3 prostate = system: PC-3 prostate
OVCAR-4 ovarian = system: OVCAR-4 ovarian
CAKI-1 renal = system: CAKI-1 renal
NCI-H23 lung = system: NCI-H23 lung
HT29 colon = system: HT29 colon
HL-60(TB) leukemia = system: HL-60(TB) leukemia
LOX IMVI melanoma = system: LOX IMVI melanoma
RPMI-8226 leukemia = system: RPMI-8226 leukemia
786-0 renal = system: 786-0 renal
DU-145 prostate = system: DU-145 prostate
IGROV1 ovarian = system: IGROV1 ovarian
ACHN renal = system: ACHN renal
A498 renal = system: A498 renal
A549 NSCLC = system: A549 NSCLC
MCF7 breast = system: MCF7 breast
BT-549 breast = system: BT-549 breast
U251 CNS = system: U251 CNS
SK-MEL-5 melanoma = system: SK-MEL-5 melanoma
SNB-19 CNS = system: SNB-19 CNS
M14 melanoma = system: M14 melanoma
T-47D breast = system: T-47D breast
KM12 colon = system: KM12 colon
NCI/ADR-RES ovarian = system: NCI/ADR-RES ovarian
SK-MEL-28 melanoma = system: SK-MEL-28 melanoma
HOP-62 NSCLC = system: HOP-62 NSCLC
UACC-257 melanoma = system: UACC-257 melanoma
HS 578T breast = system: HS 578T breast
SF-539 CNS = system: SF-539 CNS
UACC-62 melanoma = system: UACC-62 melanoma
RXF 393 renal = system: RXF 393 renal
HCT-116 colon = system: HCT-116 colon
OVCAR-5 ovarian = system: OVCAR-5 ovarian
SF-295 CNS = system: SF-295 CNS
SK-MEL-2 melanoma = system: SK-MEL-2 melanoma
K-562 leukemia = system: K-562 leukemia
MDA-MB-435 = system: MDA-MB-435
TK-10 renal = system: TK-10 renal
NCI-H460 lung = system: NCI-H460 lung
SF-268 CNS = system: SF-268 CNS
SK-OV-3 ovarian = system: SK-OV-3 ovarian
MDA-MB-231 breast = system: MDA-MB-231 breast
SN12C renal = system: SN12C renal
UO-31 renal = system: UO-31 renal
NCI-H522 lung = system: NCI-H522 lung
COLO 205 colon = system: COLO 205 colon
MALME-3M melanoma = system: MALME-3M melanoma
HOP-92 NSCLC = system: HOP-92 NSCLC
HCC-2998 colon = system: HCC-2998 colon

`CCCC/C(=C\C1=C(C)C(=O)C(OC)=C(OC)C1=O)C(=O)O` showed a GI50 (SNB-75 CNS) of 25.2 µM, a TGI (SNB-75 CNS) of over 100 µM and a GI50 (MOLT-4 leukemia) of 6.54 µM. The TGI (MOLT-4 leukemia) was over 100 µM, the GI50 (OVCAR-3 ovarian) was over 100 µM and the TGI (OVCAR-3 ovarian) was over 100 µM. It also gave a GI50 (EKVX NSCLC) of over 100 µM, a TGI (EKVX NSCLC) of over 100 µM and a GI50 (HCT-15 colon) of over 100 µM. It also gave a TGI (HCT-15 colon) of over 100 µM, a GI50 (OVCAR-8 ovarian) of over 100 µM and a TGI (OVCAR-8 ovarian) of over 100 µM. The GI50 (SW-620 colon) was over 100 µM, the TGI (SW-620 colon) was over 100 µM and the GI50 (PC-3 prostate) was over 100 µM. It also gave a TGI (PC-3 prostate) of over 100 µM, a GI50 (OVCAR-4 ovarian) of 31.6 µM and a TGI (OVCAR-4 ovarian) of over 100 µM. It also gave a GI50 (CAKI-1 renal) of over 100 µM, a TGI (CAKI-1 renal) of over 100 µM and a GI50 (NCI-H23 lung) of over 100 µM. For the same molecule, the TGI (NCI-H23 lung) was over 100 µM, the GI50 (HT29 colon) was over 100 µM and the TGI (HT29 colon) was over 100 µM. It also gave a GI50 (HL-60(TB) leukemia) of 66.3 µM, a TGI (HL-60(TB) leukemia) of over 100 µM and a GI50 (LOX IMVI melanoma) of over 100 µM. It also gave a TGI (LOX IMVI melanoma) of over 100 µM, a GI50 (RPMI-8226 leukemia) of over 100 µM and a TGI (RPMI-8226 leukemia) of over 100 µM. The GI50 (786-0 renal) was over 100 µM, the TGI (786-0 renal) was over 100 µM and the GI50 (DU-145 prostate) was over 100 µM. The TGI (DU-145 prostate) was over 100 µM, the GI50 (IGROV1 ovarian) was over 100 µM and the TGI (IGROV1 ovarian) was over 100 µM. It also gave a GI50 (ACHN renal) of over 100 µM, a TGI (ACHN renal) of over 100 µM and a GI50 (A498 renal) of over 100 µM. The TGI (A498 renal) was over 100 µM, the GI50 (A549 NSCLC) was over 100 µM and the TGI (A549 NSCLC) was over 100 µM. The GI50 (MCF7 breast) was over 100 µM, the TGI (MCF7 breast) was over 100 µM and the GI50 (BT-549 breast) was over 100 µM. It also gave a TGI (BT-549 breast) of over 100 µM, a GI50 (U251 CNS) of over 100 µM and a TGI (U251 CNS) of over 100 µM. For the same molecule, the GI50 (SK-MEL-5 melanoma) was over 100 µM, the TGI (SK-MEL-5 melanoma) was over 100 µM and the GI50 (SNB-19 CNS) was over 100 µM. The TGI (SNB-19 CNS) was over 100 µM, the GI50 (M14 melanoma) was over 100 µM and the TGI (M14 melanoma) was over 100 µM. It also gave a GI50 (T-47D breast) of 33.2 µM, a TGI (T-47D breast) of 94.3 µM and a GI50 (KM12 colon) of over 100 µM. For the same molecule, the TGI (KM12 colon) was over 100 µM, the GI50 (NCI/ADR-RES ovarian) was over 100 µM and the TGI (NCI/ADR-RES ovarian) was over 100 µM. For the same molecule, the GI50 (SK-MEL-28 melanoma) was over 100 µM, the TGI (SK-MEL-28 melanoma) was over 100 µM and the GI50 (HOP-62 NSCLC) was over 100 µM. The TGI (HOP-62 NSCLC) was over 100 µM, the GI50 (UACC-257 melanoma) was over 100 µM and the TGI (UACC-257 melanoma) was over 100 µM. The GI50 (HS 578T breast) was over 100 µM, the TGI (HS 578T breast) was over 100 µM and the GI50 (SF-539 CNS) was over 100 µM. The TGI (SF-539 CNS) was over 100 µM, the GI50 (UACC-62 melanoma) was over 100 µM and the TGI (UACC-62 melanoma) was over 100 µM. It also gave a GI50 (RXF 393 renal) of over 100 µM, a TGI (RXF 393 renal) of over 100 µM and a GI50 (HCT-116 colon) of over 100 µM. The TGI (HCT-116 colon) was over 100 µM, the GI50 (OVCAR-5 ovarian) was over 100 µM and the TGI (OVCAR-5 ovarian) was over 100 µM. For the same molecule, the GI50 (SF-295 CNS) was over 100 µM, the TGI (SF-295 CNS) was over 100 µM and the GI50 (SK-MEL-2 melanoma) was over 100 µM. The TGI (SK-MEL-2 melanoma) was over 100 µM, the GI50 (K-562 leukemia) was 50.1 µM and the TGI (K-562 leukemia) was over 100 µM. For the same molecule, the GI50 (MDA-MB-435) was over 100 µM, the TGI (MDA-MB-435) was over 100 µM and the GI50 (TK-10 renal) was over 100 µM. The TGI (TK-10 renal) was over 100 µM, the GI50 (NCI-H460 lung) was over 100 µM and the TGI (NCI-H460 lung) was over 100 µM. For the same molecule, the GI50 (SF-268 CNS) was over 100 µM, the TGI (SF-268 CNS) was over 100 µM and the GI50 (SK-OV-3 ovarian) was over 100 µM. The TGI (SK-OV-3 ovarian) was over 100 µM, the GI50 (MDA-MB-231 breast) was 33.9 µM and the TGI (MDA-MB-231 breast) was over 100 µM. For the same molecule, the GI50 (SN12C renal) was over 100 µM, the TGI (SN12C renal) was over 100 µM and the GI50 (UO-31 renal) was over 100 µM. For the same molecule, the TGI (UO-31 renal) was over 100 µM, the GI50 (NCI-H522 lung) was over 100 µM and the TGI (NCI-H522 lung) was over 100 µM. It also gave a GI50 (COLO 205 colon) of over 100 µM, a TGI (COLO 205 colon) of over 100 µM and a GI50 (MALME-3M melanoma) of over 100 µM. The TGI (MALME-3M melanoma) was over 100 µM, the GI50 (HOP-92 NSCLC) was 23.5 µM and the TGI (HOP-92 NSCLC) was 86.7 µM. The GI50 (HCC-2998 colon) was over 100 µM and the TGI (HCC-2998 colon) was over 100 µM.
